Data published in patent US12528825B2, “Compounds and uses thereof” (Foghorn Therapeutics Inc., priority 2020, dated 2026).
“Also recorded” adds a separate entry of the source.

How the values were obtained:
SYO1 cells [1] = assay: Cell cycle analysis (Click-iT Plus EdU flow cytometry); format: cell-based, human; conditions: 200 nM or 1 μM, 8 or 13 days, compared to DMSO and lenalidomide
Experimental: (§1) Procedure: SYO1 cells were treated for 8 or 13 days with DMSO, a BRD9 degrader (Compound 1) at 200 nM or 1 μM, or an E3 ligase binder (lenalidomide) at 200 nM. Compounds were refreshed every 5 days. Cell cycle analysis was performed using the Click-iT™ Plus EdU Flow Cytometry Assay (Invitrogen). The apoptosis assay was performed using the Annexin V-FITC Apoptosis Detection Kit (Sigma A9210). Assays were performed according to the manufacturer's protocol.

[2] = test system: synovial sarcoma cell lines (SYO1, HS-SY-II, and ASKA); assay: Crystal violet growth assay, synovial sarcoma cell lines, day 14; format: cell-based; conditions: for inhibition of growth of synovial sarcoma cell lines: SYO1, HS-SY-II, ASKA, treated daily, indicated concentrations, day 14, FIG. 7
Experimental: (§2) Procedure: Cells were seeded into 6-well or 12-well plates and were treated daily with a BRD9 degrader (Compound 1), a bromo-domain BRD9 binder (Compound 2), E3 ligase binder (lenalidomide), DMSO, or staurosporin (positive control for cell killing), at indicated concentrations. The number of cells was optimized for each cell line. Growth media was refreshed every 5 days. By day 14, medium was removed, cells were washed with PBS, and stained using 500 μL of 0.005% (w/v) crystal violet solution in 25% (v/v) methanol for at least 1 hour at room temperature. Subsequently plates were scanned on an Odyssey CLx Imaging system.

SYO1 cells [3] = assay: Apoptosis assay (Annexin V-FITC); format: cell-based, human; conditions: 200 nM or 1 μM, 8 days, compared to DMSO controls
Experimental: as §1

[4] = test system: non-synovial control cancer cell lines (RD, HCT116, and Calu6); assay: Crystal violet growth assay, non-synovial control cancer cell lines, day 14; format: cell-based; conditions: treated daily, indicated concentrations, FIG. 8
Experimental: as §2

[5] = test system: synovial sarcoma cell lines (SYO1, Yamato, HS-SY-II, and ASKA); assay: Growth of synovial sarcoma cell lines (IncuCyte confluency, crystal violet, colony imaging); format: cell-based; conditions: 1 μM or indicated concentrations, FIGS. 4-6
Experimental: (§3) Cells were treated with DMSO or the BRD9 degrader, Compound 1, at indicated concentrations, and proliferation was monitored from day 7 to day 14 by measuring confluency over time using an IncuCyte live cell analysis system (FIG. 4). Growth medium and compounds were refreshed every 3-4 days.
(§4) Cells were seeded into 12-well plates and treated with DMSO, 1 μM BRD9 inhibitor, Compound 2 (also known as BI-7273, see Martin et al, J Med Chem. 59(10):4462-4475 (2016); see structure of compound 2 below), or 1 μM BRD9 degrader, Compound 1.
(§5) The number of cells was optimized for each cell line. Growth medium and compounds were refreshed every 3-5 days. SYO1, Yamato, A549, 293T and HS-SY-II cells were fixed and stained at day 11. ASKA cells were fixed and stained at day 23. Staining was done by incubation with crystal violet solution (0.5 g Crystal Violet, 27 ml 37% Formaldehyde, 100 mL 10×PBS, 10 mL Methanol, 863 dH20 to 1 L) for 30 min followed by 3× washes with water and drying the plates for at least 24 h at room temperature. Subsequently plates were scanned on an Odyssey CLx Imaging system (FIG. 5).
(§6) Cells were seeded into 96-well ultra-low cluster plate (Costar, #7007) in 200 μL complete media and treated at day 2 with DMSO, Staurosporin, or BRD9 degrader, Compound 1, at indicated doses (FIG. 2C). Media and compounds were changed every 5 d and cell colonies were imaged at day 14.

[6] = test system: non-synovial control cancer cell lines (293T, A549, G401); assay: Growth of non-synovial control cancer cell lines (crystal violet, colony imaging); format: cell-based; conditions: 1 μM or indicated doses, FIGS. 4-6
Experimental: as §3, §4, §5, §6

BRD9 = molecular target: T1, BRD9 (Homo sapiens, UniProt Q9H8M2); assay: BRD9 western blot in synovial sarcoma tumors in vivo; parameters: species or system mice; conditions: 1 mg/kg, i.p., 4 weeks; tumors collected 8, 72 and 168 hours post last dose; effect up to 168 hours after dose
T1 construct: Tumors were lysed with 1× RIPA lysis buffer; from tissue; host or cells: synovial sarcoma tumours collected from treated mice
T1 sequence (Q9H8M2 1-597): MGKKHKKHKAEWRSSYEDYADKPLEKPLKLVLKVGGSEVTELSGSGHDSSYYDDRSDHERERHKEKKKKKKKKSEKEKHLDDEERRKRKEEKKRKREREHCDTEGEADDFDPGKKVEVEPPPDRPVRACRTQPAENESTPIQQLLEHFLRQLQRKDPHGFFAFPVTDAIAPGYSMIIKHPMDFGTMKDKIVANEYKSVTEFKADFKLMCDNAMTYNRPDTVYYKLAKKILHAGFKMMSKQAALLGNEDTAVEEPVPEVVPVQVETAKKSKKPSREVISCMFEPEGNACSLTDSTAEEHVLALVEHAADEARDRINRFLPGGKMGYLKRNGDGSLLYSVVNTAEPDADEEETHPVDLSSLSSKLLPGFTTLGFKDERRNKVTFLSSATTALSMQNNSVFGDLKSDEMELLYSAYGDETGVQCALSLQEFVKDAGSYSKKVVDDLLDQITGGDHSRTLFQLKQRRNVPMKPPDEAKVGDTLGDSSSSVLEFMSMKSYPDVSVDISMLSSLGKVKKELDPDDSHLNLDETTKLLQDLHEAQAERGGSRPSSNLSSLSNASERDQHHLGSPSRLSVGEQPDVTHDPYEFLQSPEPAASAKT
Experimental: Method: Mice were treated with D1, 1 mg/kg, i.p. for 4 weeks. Mice were then euthanized, and tumors were collected at 8 hours, 72 hours, and 168 hours post last dose. Tumors were lysed with 1× RIPA lysis buffer (Boston BioProducts, BP-115D) with protease and phosphatase protein inhibitor (Roche Applied Science #04906837001 & 05892791001). Equal amounts of lysate (30 μg) were loaded in 4-12% Bis-Tris Midi Protein Gels in 1×MOPS buffer; samples ran at 120 V for 120 minutes. Protein was transferred to membrane with TransBlot at 250 mA for 150 minutes, and then membranes were blocked with Odyssey blocking buffer for 1 hour at room temperature. Membranes were hybridized overnight in cold room with primary antibodies. Images acquired using Li-COR imaging system (Li-COR Biotechnology, Lincoln, Nebraska).

[7] = Tolerability (% body weight change) in the SYO-1 xenograft study; format: in vivo; conditions: 1 mg/kg, i.p., daily, 3 weeks; NOD SCID mice
Experimental: (§7) Method: NOD SCID mice (Beijing Anikeeper Biotech, Beijing) were inoculated subcutaneously on the right flank with the single cell suspension of SYO-1 human biphasic synovial sarcoma tumor cells (5×106) in 100 μL Dulbecco's Modified Eagle Medium (DMEM) with 10% fetal bovine serum (FBS). The mice were randomized into either control group [10% dimethyl sulfoxide (DMSO), 40% polyethylene glycol (PEG400) and 50% water], or treatment group D1 when the mean tumor size reached about 117 mm^3. Mice were dosed daily through intraperitoneal (i.p.) route over the course of 3 weeks. All dose volumes were adjusted by body weights in terms of mg/kg.

[8] = test system: SYO-1 human biphasic synovial sarcoma tumor cells; assay: SYO-1 synovial sarcoma xenograft tumor growth in NOD SCID mice; format: in vivo; conditions: 1 mg/kg, i.p., daily, 3 weeks, SYO-1 xenograft
Experimental: as §7

SMILES	numbers of cells in the S-phase of the cell cycle (SYO1 cells [1])	inhibition of growth of synovial sarcoma cell lines [2]	growth inhibition compared with the other test compounds ([2]; all synovial cell lines)	numbers of early- and late-apoptotic cells (SYO1 cells [3])	inhibition of growth of non-synovial control cancer cell lines [4]	inhibition of growth of synovial sarcoma cell lines [5]	inhibition of growth of non-synovial control cancer cell lines [6]	BRD9 level in tumor (western blot) (BRD9)	tolerability based on % body weight change [7]	tumor growth [8]
COc1cc(-c2cn(C)c(=O)c3cnccc23)cc(OC)c1CN(C)CC(=O)NCCOCCOCCNc1cccc2c1C(=O)N(C1CCC(=O)NC1=O)C2=O (centres unmarked) [Compound 1]	reduced numbers of cells in the S-phase	inhibition of the growth of the cells	most significant growth inhibition	increased numbers of early- and late-apoptotic cells	did not result in inhibition of the growth	inhibition of the growth of the cells	does not result in inhibition of the growth	–	–	–
COc1cc(-c2cn(C)c(=O)c3cnccc23)cc(OC)c1CN(C)C [Compound 2]	–	inhibition of the growth of the cells	–	–	did not result in inhibition of the growth	inhibition of the growth of the cells	does not result in inhibition of the growth	–	–	–
COc1cc(-c2cn(C)c(=O)c3cc(C(=O)NC4CCN(C5CCN(c6ccc7c(c6)C(=O)N(C6CCC(=O)NC6=O)C7)CC5)CC4(F)F)sc23)cc(OC)c1CN(C)C (centres unmarked) [Compound D1, 7-[4-[(dimethylamino)methyl]-3,5-dimethoxyphenyl]-N-[1′-[2-(2,6-dioxopiperidin-3-yl)-3-oxo-1H-isoindol-5-yl]-3,3-difluoro-[1,4′-bipiperidin]-4-yl]-5-methyl-4-oxothieno[3,2-c]pyridine-2-carboxamide]	–	–	–	–	–	–	–	complete degradation; also recorded: BRD9 inhibition	well tolerated	tumor growth inhibition
